# In the supplement of paper PMC10307832:
# What was measured:
# Assay in all cases: relative viability (nuclei count vs DMSO), 5 days (fraction); higher = more cells survive
# [1] = test system: NCI-H322M
# Outline: (§1)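 Cells from lung cancer lines were seeded into 1536-well plates and, one day later, dosed by pin tool. Treatments were either a single drug or a fixed dose of an anchor drug with five library-drug doses (not always all listed) in √10 steps. After 5 days, nuclei were stained in a one-step fixation (final 0.05% Triton X-100, 1% formaldehyde, 1 ug/ml Hoechst) and counted on 4× images, and relative viability is the treated-to-vehicle nuclei ratio, as the median of duplicate plates.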
# [2] = test system: NCI-H1944
# Outline: as §1
# [3] = test system: NCI-H647
# Outline: as §1
# [4] = test system: NCI-H3122
# Outline: as §1
# [5] = test system: 201T
# Outline: as §1
# [6] = test system: LXF-289
# Outline: as §1
# [7] = test system: NCI-H1792
# Outline: as §1
# [8] = test system: NCI-H2228
# Outline: as §1
# [9] = test system: BEN
# Outline: as §1
# [10] = test system: RERF-LC-KJ
# Outline: as §1
# [11] = test system: NCI-H1395
# Outline: as §1
# [12] = test system: LCLC-97TM1
# Outline: as §1
# [13] = test system: SK-LU-1
# Outline: as §1
# [14] = test system: HCC-827
# Outline: as §1
# [15] = test system: NCI-H727
# Outline: as §1
# [16] = test system: NCI-H1793
# Outline: as §1
# [17] = test system: CAL-12T
# Outline: as §1
# [18] = test system: NCI-H1437
# Outline: as §1
# [19] = test system: NCI-H1650
# Outline: as §1
# [20] = test system: NCI-H2405
# Outline: as §1
# [21] = test system: NCI-H2087
# Outline: as §1
smiles,measurement,setting,value
Cc1sc2c(c1C)C(c1ccc(Cl)cc1)=N[C@@H](CC(=O)OC(C)(C)C)c1nnc(C)n1-2 [JQ1] + CC1(C)CCC(c2ccc(Cl)cc2)=C(CN2CCN(c3ccc(C(=O)NS(=O)(=O)c4ccc(N[C@H](CCN5CCOCC5)CSc5ccccc5)c(S(=O)(=O)C(F)(F)F)c4)cc3)CC2)C1 [Navitoclax] (partner 0.5 µM),relative viability,[1]; first compound 0.04 µM,1.09
same,relative viability,[1]; first compound 0.1265 µM,1.11
same,relative viability,[1]; first compound 0.4 µM,1.1
same,relative viability,[1]; first compound 1.265 µM,0.692
same,relative viability,[1]; first compound 4 µM,0.608
same,relative viability,[2]; first compound 0.04 µM,1.02
same,relative viability,[2]; first compound 0.1265 µM,0.922
same,relative viability,[2]; first compound 0.4 µM,1.07
same,relative viability,[2]; first compound 1.265 µM,0.762
same,relative viability,[2]; first compound 4 µM,0.617
same,relative viability,[3]; first compound 0.04 µM,1.1
same,relative viability,[3]; first compound 0.1265 µM,0.709
same,relative viability,[3]; first compound 0.4 µM,0.498
same,relative viability,[3]; first compound 1.265 µM,0.141
same,relative viability,[3]; first compound 4 µM,0.0972
same,relative viability,[4]; first compound 0.04 µM,1.01
same,relative viability,[4]; first compound 0.1265 µM,1.01
same,relative viability,[4]; first compound 0.4 µM,1.07
same,relative viability,[4]; first compound 1.265 µM,0.552
same,relative viability,[4]; first compound 4 µM,0.511
same,relative viability,[5]; first compound 0.04 µM,1.23
same,relative viability,[5]; first compound 0.1265 µM,0.977
same,relative viability,[5]; first compound 0.4 µM,1.15
same,relative viability,[5]; first compound 1.265 µM,0.842
same,relative viability,[5]; first compound 4 µM,0.618
same,relative viability,[6]; first compound 0.04 µM,0.964
same,relative viability,[6]; first compound 0.1265 µM,0.975
same,relative viability,[6]; first compound 0.4 µM,0.863
same,relative viability,[6]; first compound 1.265 µM,0.731
same,relative viability,[6]; first compound 4 µM,0.29
same,relative viability,[7]; first compound 0.04 µM,0.656
same,relative viability,[7]; first compound 0.4 µM,0.708
same,relative viability,[7]; first compound 1.265 µM,0.622
same,relative viability,[7]; first compound 4 µM,0.31
same,relative viability,[8]; first compound 0.04 µM,1.13
same,relative viability,[8]; first compound 0.1265 µM,0.671
same,relative viability,[8]; first compound 0.4 µM,0.667
same,relative viability,[8]; first compound 1.265 µM,0.557
same,relative viability,[8]; first compound 4 µM,0.308
same,relative viability,[9]; first compound 0.04 µM,0.0812
same,relative viability,[9]; first compound 0.1265 µM,0.082
same,relative viability,[9]; first compound 0.4 µM,0.0765
same,relative viability,[9]; first compound 1.265 µM,0.0678
same,relative viability,[9]; first compound 4 µM,0.0582
same,relative viability,[10]; first compound 0.04 µM,0.867
same,relative viability,[10]; first compound 0.1265 µM,1.06
same,relative viability,[10]; first compound 0.4 µM,0.981
same,relative viability,[10]; first compound 1.265 µM,0.275
same,relative viability,[10]; first compound 4 µM,0.33
same,relative viability,[11]; first compound 0.04 µM,1.13
same,relative viability,[11]; first compound 0.1265 µM,1.03
same,relative viability,[11]; first compound 0.4 µM,0.951
same,relative viability,[11]; first compound 1.265 µM,0.633
same,relative viability,[11]; first compound 4 µM,0.516
same,relative viability,[12]; first compound 0.1265 µM,0.329
same,relative viability,[12]; first compound 0.4 µM,0.403
same,relative viability,[12]; first compound 1.265 µM,0.175
same,relative viability,[12]; first compound 4 µM,0.152
same,relative viability,[13]; first compound 0.04 µM,0.841
same,relative viability,[13]; first compound 0.1265 µM,0.784
same,relative viability,[13]; first compound 0.4 µM,0.791
same,relative viability,[13]; first compound 1.265 µM,0.0557
same,relative viability,[13]; first compound 4 µM,0.0951
same,relative viability,[14]; first compound 0.04 µM,0.95
same,relative viability,[14]; first compound 0.4 µM,1.14
same,relative viability,[14]; first compound 1.265 µM,0.94
same,relative viability,[14]; first compound 4 µM,0.689
same,relative viability,[15]; first compound 0.04 µM,0.436
same,relative viability,[15]; first compound 0.1265 µM,0.453
same,relative viability,[15]; first compound 0.4 µM,0.291
same,relative viability,[15]; first compound 1.265 µM,0.209
same,relative viability,[15]; first compound 4 µM,0.252
same,relative viability,[16]; first compound 0.04 µM,0.408
same,relative viability,[16]; first compound 0.1265 µM,0.345
same,relative viability,[16]; first compound 0.4 µM,0.515
same,relative viability,[16]; first compound 1.265 µM,0.444
same,relative viability,[16]; first compound 4 µM,0.377
same,relative viability,[17]; first compound 0.04 µM,1.12
same,relative viability,[17]; first compound 0.1265 µM,1.29
same,relative viability,[17]; first compound 0.4 µM,0.701
same,relative viability,[17]; first compound 1.265 µM,0.295
same,relative viability,[17]; first compound 4 µM,0.408
same,relative viability,[18]; first compound 0.04 µM,1.03
same,relative viability,[18]; first compound 0.1265 µM,0.798
same,relative viability,[18]; first compound 0.4 µM,0.693
same,relative viability,[18]; first compound 1.265 µM,0.325
same,relative viability,[18]; first compound 4 µM,0.306
same,relative viability,[19]; first compound 0.04 µM,1.09
same,relative viability,[19]; first compound 0.1265 µM,0.998
same,relative viability,[19]; first compound 0.4 µM,0.655
same,relative viability,[19]; first compound 1.265 µM,0.24
same,relative viability,[19]; first compound 4 µM,0.169
same,relative viability,[20]; first compound 0.04 µM,0.886
same,relative viability,[20]; first compound 0.4 µM,0.491
same,relative viability,[20]; first compound 1.265 µM,0.136
same,relative viability,[20]; first compound 4 µM,0.117
same,relative viability,[21]; first compound 0.04 µM,1.03
same,relative viability,[21]; first compound 0.4 µM,0.74
same,relative viability,[21]; first compound 1.265 µM,0.552
same,relative viability,[21]; first compound 4 µM,0.502
